The test system of the assay is immunoglobulin light chain protein WIL-FL T46L. The experiment in a line: Differential scanning fluorimetry (thermal shift) assay. It is filed as binding. The conditions noted are these: Table A; temperature shift [Tm]compound-[Tm]vehicle; recombinant WIL-FL T46L. In general terms: DSF heats the sample and reads unfolding from a dye or from intrinsic fluorescence.

As to `Cc1cc(N2CC[C@](C)(c3ccccc3)C2)cn2nc(C(=O)NC3(CO)CCOCC3)nc12` [Compound 131], the DSF entry is “***** (>2.5° C.=*****)”.

`Cc1cc(N2CC[C@](C)(c3ccccc3)C2)cn2nc(C(=O)NC34CC(O)(C3)C4)nc12` [Compound 132]: the DSF result is on record as “***** (>2.5° C.=*****)”. The result for `Cc1noc([C@@H]2C[C@H](NC(=O)c3nc4c(C)cc(N5CC[C@](C)(c6ccccc6)C5)cn4n3)CN2)n1` [Compound 133] reads “***** (>2.5° C.=*****)”. The entry for `Cc1cc(N2CC[C@](C)(c3ccccc3)C2)cn2nc(C(=O)N[C@H]3CNC[C@@H]3C(=O)O)nc12` [Compound 134] is “***** (>2.5° C.=*****)”. Regarding `Cc1cc(N2CC[C@](C)(c3ccccc3)C2)cn2nc(C(=O)N3CCC4NC(=O)CC43)nc12` (some centres unmarked) [Compound 135], the DSF entry is given as “***** (>2.5° C.=*****)”.

Consider `Cc1cc(N2CC[C@](C)(c3ccccc3)C2)cn2nc(C(=O)NCC(C)(C)C(=O)O)nc12` [Compound 136], for which the DSF result is recorded as “***** (>2.5° C.=*****)”. The result for `Cc1cc(N2CC[C@](C)(c3ccccc3)C2)cn2nc(C(N)=O)nc12` [Compound 137] reads “***** (>2.5° C.=*****)”; that for `COCC(C)(O)CNC(=O)c1nc2c(C)cc(N3CC[C@](C)(c4ccccc4)C3)cn2n1` (some centres unmarked) [Compound 138], “***** (>2.5° C.=*****)”; that for `Cc1cc(N2CC[C@](C)(c3ccccc3)C2)cn2nc(C(=O)N[C@@H](C)CO)nc12` [Compound 139], “***** (>2.5° C.=*****)”.

Turning to `CO[C@@H]1CNC[C@H]1NC(=O)c1nc2c(C)cc(N3CC[C@](C)(c4ccccc4)C3)cn2n1` [Compound 140], the DSF entry is “***** (>2.5° C.=*****)”. For `Cc1cc(N2CC[C@](C)(c3ccccc3)C2)cn2nc(C(=O)NC3COCC3(C)O)nc12` (some centres unmarked) [Compound 141], the DSF entry is given as “***** (>2.5° C.=*****)”.

Regarding `Cc1cc(N2CC[C@](C)(c3ccccc3)C2)cn2nc(C(=O)N[C@@H]3CCC[C@@H]3O)nc12` [Compound 142], the DSF entry was “***** (>2.5° C.=*****)”. On to `COC(=O)CC1CCN(C(=O)c2nc3c(C)cc(N4CC[C@](C)(c5ccccc5)C4)cn3n2)C1` (some centres unmarked) [Compound 143], for which the DSF entry was “***** (>2.5° C.=*****)”.

As for `Cc1cc(N2CC[C@](C)(c3ccccc3)C2)cn2nc(C(=O)N3CCN(S(C)(=O)=O)CC3)nc12` [Compound 144], the DSF result is reported as “***** (>2.5° C.=*****)”. The result for `Cc1cc(N2CC[C@](C)(c3ccccc3)C2)cn2nc(C(=O)NC3COC4(CCOC4)C3)nc12` (some centres unmarked) [Compound 145] reads “***** (>2.5° C.=*****)”; that for `Cc1cc(N2CC[C@](C)(c3ccccc3)C2)cn2nc(C(=O)N3CC4(O)CC3C4)nc12` [Compound 146], “***** (>2.5° C.=*****)”. The entry for `Cc1cc(N2CC[C@](C)(c3ccccc3)C2)cn2nc(C(=O)NC3CCS(=N)(=O)C3)nc12` (some centres unmarked) [Compound 147] is “***** (>2.5° C.=*****)”. The entry for `COC(CO)CNC(=O)c1nc2c(C)cc(N3CC[C@](C)(c4ccccc4)C3)cn2n1` (some centres unmarked) [Compound 148] is “***** (>2.5° C.=*****)”; for `Cc1cc(N2CC[C@](C)(c3ccccc3)C2)cn2nc(C(=O)N[C@H]3CNC[C@H]3F)nc12` [Compound 149] it is “***** (>2.5° C.=*****)”; for `Cc1cc(N2CC[C@](C)(c3ccccc3)C2)cn2nc(C(=O)NC3CNCC3(F)F)nc12` (some centres unmarked) [Compound 150] it is “***** (>2.5° C.=*****)”. For `Cc1cc(N2CC[C@](C)(c3ccccc3)C2)cn2nc(C(=O)NC3COC4(CNC4)C3)nc12` (some centres unmarked) [Compound 152], the DSF result was “***** (>2.5° C.=*****)”. The entry for `Cc1cc(N2CC[C@](C)(c3ccccc3)C2)cn2nc(C(=O)NC(C)(C)CO)nc12` [Compound 153] is “***** (>2.5° C.=*****)”. Regarding `Cc1cc(N2CC[C@](C)(c3ccccc3)C2)cn2nc(C(=O)NC3CCC(F)(F)C3)nc12` (some centres unmarked) [Compound 154], the DSF entry is on record as “***** (>2.5° C.=*****)”. The result for `Cc1cc(N2CC[C@](C)(c3ccccc3)C2)cn2nc(C(=O)NC34CC(CO)(C3)C4)nc12` [Compound 155] reads “***** (>2.5° C.=*****)”; that for `Cc1cc(N2CC[C@](C)(c3ccccc3)C2)cn2nc(C(=O)NC3CCN(N4C[C@@H](O)[C@@H](O)C4)C3)nc12` (some centres unmarked) [Compound 156], “***** (>2.5° C.=*****)”. The result for `Cc1cc(N2CC[C@](C)(c3ccccc3)C2)cn2nc(C(=O)N[C@H]3COCC[C@@H]3O)nc12` [Compound 157] reads “***** (>2.5° C.=*****)”.

In the case of `Cc1cc(N2CC[C@](C)(c3ccccc3)C2)cn2nc(C(=O)N3CC4C(C3)C4C(=O)O)nc12` (some centres unmarked) [Compound 158], the DSF result is listed as “***** (>2.5° C.=*****)”. The entry for `Cc1cc(N2CC[C@](C)(c3ccccc3)C2)cn2nc(C(=O)N3CC[C@@](C)(O)C3)nc12` [Compound 159] is “***** (>2.5° C.=*****)”; for `Cc1cc(N2CC[C@](C)(c3ccccc3)C2)cn2nc(C(=O)N[C@@H]3CC[C@H]3O)nc12` [Compound 160] it is “***** (>2.5° C.=*****)”; for `Cc1cc(N2CC[C@](C)(c3ccccc3)C2)cn2nc(C(=O)N[C@@H]3CC[C@@H]3O)nc12` [Compound 161] it is “***** (>2.5° C.=*****)”. The result for `Cc1cc(N2CC[C@](C)(c3ccccc3)C2)cn2nc(C(=O)N[C@@H]3CN[C@H](C(C)(C)O)C3)nc12` [Compound 162] reads “***** (>2.5° C.=*****)”; that for `Cc1cc(N2CC[C@](C)(c3ccccc3)C2)cn2nc(C(=O)NC3(C(=O)O)CC3)nc12` [Compound 163], “***** (>2.5° C.=*****)”. The result for `Cc1cc(N2CC[C@](C)(c3ccccc3)C2)cn2nc(C(=O)N(C)C3(C(=O)O)CC3)nc12` [Compound 164] reads “***** (>2.5° C.=*****)”; that for `Cc1cc(N2CC[C@](C)(c3ccccc3)C2)cn2nc(C(=O)NCC3(C(=O)O)CC3)nc12` [Compound 165], “***** (>2.5° C.=*****)”; that for `COC1CNCC1NC(=O)c1nc2c(C)cc(N3CC[C@](C)(c4ccccc4)C3)cn2n1` (some centres unmarked) [Compound 166], “***** (>2.5° C.=*****)”. For the compound `Cc1cc(N2CC[C@](C)(c3ccccc3)C2)cn2nc(C(=O)N[C@H]3C[C@](C)(O)C3)nc12` [Compound 167], the DSF entry is reported as “***** (>2.5° C.=*****)”. For the compound `Cc1cc(N2CC[C@](C)(c3ccccc3)C2)cn2nc(C(C)(C)OC3CCNC3)nc12` (some centres unmarked) [Compound 168], the DSF entry is on record as “**** (>1.5-2.5° C.=****)”.

With `Cc1cc(N2CC[C@](C)(c3ccccc3)C2)cn2nc(C(=O)NC(C)(C)C(=O)O)nc12` [Compound 169], the DSF result is listed as “***** (>2.5° C.=*****)”. Turning to `CNC(=O)c1nc2c(C)cc(N3CC[C@](C)(c4ccccc4)C3)cn2n1` [Compound 170], the DSF result is on record as “***** (>2.5° C.=*****)”. The entry for `Cc1cc(N2CC[C@](C)(c3ccccc3)C2)cn2nc(C(=O)NCC34CCCN3CC(F)C4)nc12` (some centres unmarked) [Compound 171] is “***** (>2.5° C.=*****)”; for `Cc1cc(N2CC[C@](C)(c3ccccc3)C2)cn2nc(C(=O)NC34COC(C(=O)O)(C3)C4)nc12` [Compound 172] it is “***** (>2.5° C.=*****)”; for `Cc1cc(N2CC[C@](C)(c3ccccc3)C2)cn2nc(C(=O)NC34COC(CO)(C3)C4)nc12` [Compound 173] it is “***** (>2.5° C.=*****)”.

For the compound `Cc1cc(N2CC[C@](C)(c3ccccc3)C2)cn2nc(C(=O)N3CC[C@H](O)C3)nc12` [Compound 174], the DSF entry is listed as “***** (>2.5° C.=*****)”. The result for `COC(=O)C12CCC(NC(=O)c3nc4c(C)cc(N5CC[C@](C)(c6ccccc6)C5)cn4n3)(C1)C2` [Compound 175] reads “***** (>2.5° C.=*****)”; that for `Cc1cc(N2CC[C@](C)(c3ccccc3)C2)cn2nc(C(=O)N3CCOC(C(=O)O)C3)nc12` (some centres unmarked) [Compound 176], “***** (>2.5° C.=*****)”. The entry for `Cc1cc(N2CC[C@](C)(c3ccccc3)C2)cn2nc(C(=O)N3CCOC4(CNC4)C3)nc12` [Compound 177] is “***** (>2.5° C.=*****)”; for `Cc1cc(N2CC[C@](C)(c3ccccc3)C2)cn2nc(C(=O)N3CCCC(C)(C(=O)O)C3)nc12` (some centres unmarked) [Compound 178] it is “***** (>2.5° C.=*****)”; for `Cc1cc(N2CC[C@](C)(c3ccccc3)C2)cn2nc(C(=O)NC3CNC(C)(C(=O)O)C3)nc12` (some centres unmarked) [Compound 179] it is “***** (>2.5° C.=*****)”. The entry for `Cc1cc(N2CC[C@](C)(c3ccccc3)C2)cn2nc(C(=O)NC3COCC3(C)C(=O)O)nc12` (some centres unmarked) [Compound 180] is “***** (>2.5° C.=*****)”; for `Cc1cc(N2CC[C@](C)(c3ccccc3)C2)cn2nc(C(=O)NC34CCC(C(=O)O)(C3)OC4)nc12` (some centres unmarked) [Compound 181] it is “***** (>2.5° C.=*****)”; for `Cc1cc(N2CC[C@](C)(c3ccccc3)C2)cn2nc(C(=O)N3CCC(OCC(=O)O)CC3)nc12` [Compound 182] it is “***** (>2.5° C.=*****)”. Take `Cc1cc(N2CC[C@](C)(c3ccccc3)C2)cn2nc(C(=O)NC34COC(C3)C4)nc12` [Compound 183]: the DSF entry is “***** (>2.5° C.=*****)”.

`Cc1cc(N2CC[C@](C)(c3ccccc3)C2)cn2nc(C(=O)O)nc12` [Compound 184]: the DSF result was “** (>0.5-1 °C =**)”. The entry for `Cc1cc(N2CC[C@](C)(c3ccccc3)C2)cn2nc(C(=O)NC34CNCC3C4)nc12` (some centres unmarked) [Compound 185] is “***** (>2.5° C.=*****)”; for `Cc1cc(N2CC[C@](C)(c3ccccc3)C2)cn2nc(C(=O)N[C@@H]3CNCC34CC4)nc12` [Compound 186] it is “***** (>2.5° C.=*****)”; for `Cc1cc(N2CC[C@](C)(c3ccccc3)C2)cn2nc(C(=O)N[C@H]3CNCC34CC4)nc12` [Compound 187] it is “***** (>2.5° C.=*****)”. The entry for `CCC(=O)N1CCC(NC(=O)c2nc3c(C)cc(N4CC[C@](C)(c5ccccc5)C4)cn3n2)CC1` [Compound 188] is “***** (>2.5° C.=*****)”; for `Cc1cc(N2CC[C@](C)(c3ccccc3)C2)cn2nc(C(=O)NC3(C)CCNC3)nc12` (some centres unmarked) [Compound 189] it is “***** (>2.5° C.=*****)”.

As to `Cc1cc(N2CC[C@](C)(c3ccccc3)C2)cn2nc(C(=O)NC3CCN(c4cncnc4)C3)nc12` (some centres unmarked) [Compound 190], the DSF entry was “***** (>2.5° C.=*****)”.

Values taken from patent US20260285857A1, “BICYCLIC AND HETEROCYCLIC AMIDE COMPOUNDS” (priority 2024, published 2026).
